ChEMBL document CHEMBL5579851, “Synthesis and antifungal evaluation of novel triazole derivatives bearing a pyrazole-methoxyl moiety” (Eur J Med Chem, 2024)
Values after ≈ are worked out from the molar mass of the structure shown.

How the values were obtained:
Format in all cases: functional
Saccharomyces cerevisiae [1] = test: Antifungal activity against recombinant Saccharomyces cerevisiae Y2411 overexpressing ScErg11 assessed as inhibition of fungal growth incubated for 48 hrs by CLSI based broth microdilution assay
Saccharomyces cerevisiae [2] = test: Antifungal activity against recombinant Saccharomyces cerevisiae Y525 overexpressing CaMdr1 assessed as inhibition of fungal growth incubated for 48 hrs by CLSI based broth microdilution assay
Saccharomyces cerevisiae [3] = test: Antifungal activity against recombinant Saccharomyces cerevisiae Y570 overexpressing CaCdr1 assessed as inhibition of fungal growth incubated for 48 hrs by CLSI based broth microdilution assay
Saccharomyces cerevisiae [4] = test: Antifungal activity against recombinant Saccharomyces cerevisiae Y2301 overexpressing ScErg11 Y140F mutant assessed as inhibition of fungal growth incubated for 48 hrs by CLSI based broth microdilution assay
Saccharomyces cerevisiae [5] = test: Antifungal activity against recombinant Saccharomyces cerevisiae Y2374 overexpressing CgErg11 assessed as inhibition of fungal growth incubated for 48 hrs by CLSI based broth microdilution assay
Saccharomyces cerevisiae [6] = test: Antifungal activity against recombinant Saccharomyces cerevisiae Y2513 overexpressing ScErg11 Y140H mutant assessed as inhibition of fungal growth incubated for 48 hrs by CLSI based broth microdilution assay
Saccharomyces cerevisiae [7] = test: Antifungal activity against recombinant Saccharomyces cerevisiae Y2459 overexpressing CaErg11/CaCpr assessed as inhibition of fungal growth incubated for 48 hrs by CLSI based broth microdilution assay
Saccharomyces cerevisiae [8] = test: Antifungal activity against recombinant Saccharomyces cerevisiae Y2766 overexpressing CauCdr1 assessed as inhibition of fungal growth incubated for 48 hrs by CLSI based broth microdilution assay
Saccharomyces cerevisiae [9] = test: Antifungal activity against recombinant Saccharomyces cerevisiae Y2769 overexpressing CauErg11 K143R mutant assessed as inhibition of fungal growth incubated for 48 hrs by CLSI based broth microdilution assay
Saccharomyces cerevisiae [10] = test: Antifungal activity against recombinant Saccharomyces cerevisiae Y2765 overexpressing CauMdr1 assessed as inhibition of fungal growth incubated for 48 hrs by CLSI based broth microdilution assay
Saccharomyces cerevisiae [11] = test: Antifungal activity against recombinant Saccharomyces cerevisiae Y2711 overexpressing CnErg11 assessed as inhibition of fungal growth incubated for 48 hrs by CLSI based broth microdilution assay
Saccharomyces cerevisiae [12] = test: Antifungal activity against recombinant Saccharomyces cerevisiae Y2716 overexpressing CpErg11 Y132F mutant/ CpCpr assessed as inhibition of fungal growth incubated for 48 hrs by CLSI based broth microdilution assay
Saccharomyces cerevisiae [13] = test: Antifungal activity against recombinant Saccharomyces cerevisiae Y2767 overexpressing CauErg11 assessed as inhibition of fungal growth incubated for 48 hrs by CLSI based broth microdilution assay
Saccharomyces cerevisiae [14] = test: Antifungal activity against recombinant Saccharomyces cerevisiae Y2300 overexpressing ScErg11 assessed as inhibition of fungal growth incubated for 48 hrs by CLSI based broth microdilution assay
Saccharomyces cerevisiae [15] = test: Antifungal activity against recombinant Saccharomyces cerevisiae Y2721 overexpressing CpErg11/CpCpr assessed as inhibition of fungal growth incubated for 48 hrs by CLSI based broth microdilution assay
Saccharomyces cerevisiae [16] = test: Antifungal activity against recombinant Saccharomyces cerevisiae Y2768 overexpressing CauErg11 T132F mutant assessed as inhibition of fungal growth incubated for 48 hrs by CLSI based broth microdilution assay
Saccharomyces cerevisiae [17] = test: Antifungal activity against recombinant Saccharomyces cerevisiae Y2462 overexpressing ScErg11/ScNcp1 assessed as inhibition of fungal growth incubated for 48 hrs by CLSI based broth microdilution assay
Candida tropicalis [18] = test: Potency index, ratio of ravuconazole MIC to test compound MIC for antifungal activity against Candida tropicalis 8915 assessed as inhibition of fungal growth incubated for 48 hrs by CLSI based broth microdilution assay
Candida tropicalis [19] = test: Potency index, ratio of fluconazole MIC to test compound MIC for antifungal activity against Candida tropicalis 8915 assessed as inhibition of fungal growth incubated for 48 hrs by CLSI based broth microdilution assay
Pichia kudriavzevii = test: Antifungal activity against Candida krusei 4996 assessed as inhibition of fungal growth incubated for 48 hrs by CLSI based broth microdilution assay
[Candida] auris [20] = Antifungal activity against fluconazole-resistant Candida auris 919 assessed as inhibition of fungal growth incubated for 48 hrs by CLSI based broth microdilution assay; conditions: Candidozyma auris
Candida albicans [21] = test: Antifungal activity against fluconazole-resistant Candida albicans 901 assessed as inhibition of fungal growth incubated for 48 hrs by CLSI based broth microdilution assay
Candida albicans [22] = test: Antifungal activity against Candida albicans SC5314 assessed as inhibition of fungal growth incubated for 48 hrs by CLSI based broth microdilution assay
[Candida] auris [23] = Antifungal activity against fluconazole-resistant Candida auris 918 assessed as inhibition of fungal growth incubated for 48 hrs by CLSI based broth microdilution assay; conditions: Candidozyma auris
Nakaseomyces glabratus = test: Antifungal activity against Candida glabrata 537 assessed as inhibition of fungal growth incubated for 48 hrs by CLSI based broth microdilution assay
Cryptococcus neoformans = test: Antifungal activity against Cryptococcus neoformans 32609 assessed as inhibition of fungal growth incubated for 72 hrs by CLSI based broth microdilution assay
Candida albicans [24] = test: Antifungal activity against Candida albicans 10231 assessed as inhibition of fungal growth incubated for 48 hrs by CLSI based broth microdilution assay
[Candida] auris [25] = Antifungal activity against fluconazole-resistant Candida auris 891 assessed as inhibition of fungal growth incubated for 48 hrs by CLSI based broth microdilution assay; conditions: Candidozyma auris
Candida tropicalis [26] = test: Antifungal activity against Candida tropicalis 8915 assessed as inhibition of fungal growth incubated for 48 hrs by CLSI based broth microdilution assay
Candida albicans [27] = test: Antifungal activity against fluconazole-resistant Candida albicans 904 assessed as inhibition of fungal growth incubated for 48 hrs by CLSI based broth microdilution assay
Candida parapsilosis = test: Antifungal activity against Candida parapsilosis 22019 assessed as inhibition of fungal growth incubated for 48 hrs by CLSI based broth microdilution assay; conditions: Lodderomyces parapsilosis

| SMILES | MIC (Saccharomyces cerevisiae [1]) | MIC (Saccharomyces cerevisiae [2]) | MIC (Saccharomyces cerevisiae [3]) | MIC (Saccharomyces cerevisiae [4]) | MIC (Saccharomyces cerevisiae [5]) | MIC (Saccharomyces cerevisiae [6]) | MIC (Saccharomyces cerevisiae [7]) | MIC (Saccharomyces cerevisiae [8]) | MIC (Saccharomyces cerevisiae [9]) | MIC (Saccharomyces cerevisiae [10]) | MIC (Saccharomyces cerevisiae [11]) | MIC (Saccharomyces cerevisiae [12]) | MIC (Saccharomyces cerevisiae [13]) | MIC (Saccharomyces cerevisiae [14]) | MIC (Saccharomyces cerevisiae [15]) | MIC (Saccharomyces cerevisiae [16]) | MIC (Saccharomyces cerevisiae [17]) | MIC (Pichia kudriavzevii) | MIC ([Candida] auris [20]) | MIC (Candida albicans [21]) | further results |
| --- | --- | --- | --- | --- | --- | --- | --- | --- | --- | --- | --- | --- | --- | --- | --- | --- | --- | --- | --- | --- | --- |
| CC[C@@H]([C@H](C)O)n1ncn(-c2ccc(N3CCN(c4ccc(OC[C@@H]5CO[C@@](Cn6cncn6)(c6ccc(F)cc6F)C5)cc4)CC3)cc2)c1=O [POSACONAZOLE] | 0.5 µg/mL | 0.125 µg/mL | 8 µg/mL | 2 µg/mL | 0.125 µg/mL | 2 µg/mL | 0.125 µg/mL | 0.125 µg/mL | 1 µg/mL | 0.125 µg/mL | 0.0313 µg/mL | 1 µg/mL | 0.063 µg/mL | 1 µg/mL | 0.25 µg/mL | 1 µg/mL | 0.125 µg/mL |  |  |  |  |
| C[C@@H](c1ncncc1F)[C@](O)(Cn1cncn1)c1ccc(F)cc1F [VORICONAZOLE] | 0.008 µg/mL | 0.5 µg/mL | 8 µg/mL | 0.0313 µg/mL | 0.0313 µg/mL | 0.0313 µg/mL | 0.016 µg/mL | 2 µg/mL | 0.063 µg/mL | 1 µg/mL | 0.008 µg/mL | 0.25 µg/mL | 0.0313 µg/mL | 0.0313 µg/mL | 0.0313 µg/mL | 0.25 µg/mL | 0.063 µg/mL |  |  |  |  |
| C[C@@H](OCc1ccn(Cc2ccc(Br)cc2)n1)[C@](O)(Cn1cncn1)c1ccc(F)cc1F |  |  |  |  |  |  |  |  |  |  |  |  |  |  |  |  |  | 2 µg/mL (≈ 3.86 µM) | 8 µg/mL (≈ 15.4 µM) | 32 µg/mL (≈ 61.7 µM) | Ratio (Candida tropicalis [18]): 32; Ratio (Candida tropicalis [19]): 256; MIC (Candida albicans [22]): ≤ 0.125 µg/mL; MIC ([Candida] auris [23]): 8 µg/mL (≈ 15.4 µM); MIC (Nakaseomyces glabratus): ≤ 0.125 µg/mL; MIC (Cryptococcus neoformans): 0.25 µg/mL (≈ 0.482 µM); MIC (Candida albicans [24]): ≤ 0.125 µg/mL; MIC ([Candida] auris [25]): 16 µg/mL (≈ 30.9 µM); MIC (Candida tropicalis [26]): 0.25 µg/mL (≈ 0.482 µM); MIC (Candida albicans [27]): 16 µg/mL (≈ 30.9 µM); MIC (Candida parapsilosis): 0.25 µg/mL (≈ 0.482 µM) |
| C[C@@H](c1nc(-c2ccc(C#N)cc2)cs1)[C@](O)(Cn1cncn1)c1ccc(F)cc1F [RAVUCONAZOLE] | 0.008 µg/mL | 0.063 µg/mL | 16 µg/mL | 0.016 µg/mL | 0.008 µg/mL | 0.008 µg/mL | 0.008 µg/mL | 2 µg/mL | 0.008 µg/mL | 0.016 µg/mL | 0.008 µg/mL | 0.008 µg/mL | 0.016 µg/mL | 0.008 µg/mL | 0.008 µg/mL | 0.008 µg/mL | 0.008 µg/mL | 1 µg/mL (≈ 2.29 µM) | 1 µg/mL (≈ 2.29 µM) | 16 µg/mL (≈ 36.6 µM) | MIC (Candida albicans [22]): ≤ 0.125 µg/mL; MIC ([Candida] auris [23]): 1 µg/mL (≈ 2.29 µM); MIC (Nakaseomyces glabratus): ≤ 0.125 µg/mL; MIC (Cryptococcus neoformans): ≤ 0.125 µg/mL; MIC (Candida albicans [24]): ≤ 0.125 µg/mL; MIC ([Candida] auris [25]): 1 µg/mL (≈ 2.29 µM); MIC (Candida tropicalis [26]): 8 µg/mL (≈ 18.3 µM); MIC (Candida albicans [27]): 16 µg/mL (≈ 36.6 µM); MIC (Candida parapsilosis): ≤ 0.125 µg/mL |
